Laboratory results taken from PubChem BioAssay AID256 (DTP/NCI, 2004).
Where “and” joins values, the source holds several entries; their conditions need not be identical. Identical values can stand only once. Inconclusive results and toxic doses are left out. Rule for the calls: active = survival T/C of 150% or more; inactive = T/C below 125% in these data.

System: CD2F1 mice, L1210 leukemia ip, survival T/C
Experiment: NCI In Vivo Anticancer Drug Screen. Data for tumor model L1210 Leukemia (intraperitoneal) in CD2F1 (CDF1) mice
Conditions: endpoint: mean survival time, vehicle: saline, higher = longer survival
Method in brief: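 Mice carrying a transplanted tumor received test compound or vehicle alone. The value is the measurement in the treated group divided by that in the vehicle-treated control group.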

Measured: T/C

O=C(CBr)c1cc(-c2ccc(Cl)cc2)nc2c(Cl)cc(Cl)cc12
inactive: dose: 100.0 mg/kg/injection, schedule: Q01DX001 (ip) 91 % of control | dose: 200.0 mg/kg/injection, schedule: Q01DX001 (ip) 97 % of control | dose: 400.0 mg/kg/injection, schedule: Q01DX001 (ip) 103 % of control

O=C(Nc1ccc(C2=NCCN2)cc1)c1cc(Cl)cc(C(=O)Nc2ccc(C3=NCCN3)cc2)c1
inactive: dose: 62.5 mg/kg/injection, schedule: Q01DX009 (ip) 101 % of control and 104 % of control | dose: 125.0 mg/kg/injection, schedule: Q01DX009 (ip) 101 % of control and 103 % of control | dose: 250.0 mg/kg/injection, schedule: Q01DX009 (ip) 107 % of control and 108 % of control | dose: 500.0 mg/kg/injection, schedule: Q01DX009 (ip) 115 % of control and 110 % of control
